How the values were obtained:
[1] = test system: CFA induced inflammatory pain in the rat; assay: Complete Freund's Adjuvant (CFA) induced inflammatory pain model; format: in vivo; conditions: 60 mg/kg PO
Protocol: In this rat model of inflammatory pain, 100 uL of CFA diluted 1:1 with phosphate buffered saline was injected into the subplantar region of the right hind paw on Day 1. On day 3, test compounds were administered orally and rats were assessed for their reaction to a mechanical stimuli applied via an Analgesy® meter. Injection of CFA increased the rats' reactivity to painful stimuli and this was reflected in a decrease in the amount of pressure they could tolerate prior to withdrawing their paw from the apparatus (hyperalgesia). An anti-hyperalgesic activity of the test compound was denoted by an increase in the amount of pressure they can tolerate prior to withdrawing their paw from the apparatus. The mean±SEM for each treatment group was determined and a Dunnett test was applied for comparison between vehicle and treated groups. Differences were considered significant at P<0.05. (see Bertorelli et al. 1999 Brit Journ Pharmacol 128:1252).

[2] = test system: PBQ-induced writhing in the mouse; assay: Phenylbenzoquinone-induced (PBQ) writhing model

Compound | Post CFA PWT (grams) [1] [grams] | Number of Writhes ([2]; Dose 3, PO) | Number of Writhes ([2]; Dose 10, PO) | Number of Writhes ([2]; Dose 30, PO)
COc1ccc(C(=O)c2cc3cc(C)n(CCN4CCOCC4)c3s2)c(F)c1 [Compound I-68] | 178.7 ± 24.4 | 9.6 ± 2.2 | 5.92 ± 1.55 | 
COc1ccc(C(=O)c2cc3cc(C)n(CCN4CCOCC4)c3s2)c(Cl)c1 [Compound I-70] | 195.7 ± 16.4 |  |  | 3.2 ± 1.57
COc1ccc(C(=O)c2cc3cc(C)n(CCCNS(C)(=O)=O)c3s2)c(F)c1 [Compound I-87] | 100.7 ± 11.3 |  |  | 17.2 ± 2.5
COc1ccc(C(=O)c2cc3cc(C)n(CCCNS(C)(=O)=O)c3s2)cn1 [Compound I-109] | 132 ± 12.3 | 13.3 ± 2.3 | 8.93 ± 2.28 | 5.78 ± 1.75
